pIC50: −log10 of the molar value.
Key:
CDK4 = conditions: Finn et al. (2009); cited from earlier work
CDK6 = conditions: Finn et al. (2009); cited from earlier work
H727 = assay: CellTiter-Glo proliferation/survival assay, H727; assay type: cell-based; conditions: Homo sapiens, NCI-H727, 120 h, 5 days, 0.005-100 nM
Description: (§1) The panRAS antibody drug conjugates were tested against the following cancer cell lines: • LU65: JCRB No. JCRB0079 cultured in RPMI-1640+10% FBS • HPAC: ATCC No. CRL-2119 cultured in DMEM:HAM's F12+5% FBS • NCI-H727: ATCC No. CRL-5815 cultured in RPMI-1640+10% FBS • SW1271: ATCC No. CRL-2177 cultured in DMEM+10% FBS
(§2) The ability of the panRAS antibody drug conjugates to inhibit cell proliferation and survival was assessed using the Promega CellTiter-Glo® proliferation assay.
(§3) Cell lines were cultured in media that is optimal for their growth at 5% CO2, 37° C. in a tissue culture incubator. Prior to seeding for the proliferation assay, the cells were split at least 2 days before the assay to ensure optimal growth density. On the day of seeding, cell viability and cell density were determined using a cell counter (Vi-Cell XR Cell Viability Analyzer, Beckman Coulter). […] Plates were incubated at 5% CO2, 37° C. for 5 days in a tissue culture incubator, after which cell viability was assessed through the addition of 25 μL of CellTiter Glo® (Promega, cat #G7573), a reagent which lyses cells and measures total adenosine triphosphate (ATP) content. Plates were incubated at room temperature for 10 minutes to stabilize luminescent signals prior to reading using a luminescence reader (EnVision Multilabel Plate Reader, PerkinElmer). […]

SW1271 = assay: CellTiter-Glo proliferation/survival assay, SW1271; assay type: cell-based; conditions: 120 h, 5 days, 0.005-100 nM
Description: as §1, §2, §3

HPAC = assay: CellTiter-Glo proliferation/survival assay, HPAC; assay type: cell-based; conditions: Homo sapiens, 120 h, 5 days, 0.005-100 nM
Description: as §1, §2, §3

| SMILES | pIC50 (CDK4) | pIC50 (CDK6) | pIC50 (H727) | pIC50 (SW1271) | pIC50 (HPAC) |
| --- | --- | --- | --- | --- | --- |
| CC(=O)c1c(C)c2cnc(Nc3ccc(N4CCNCC4)cn3)nc2n(C2CCCC2)c1=O [Palbociclib, 6-Acetyl-8-cyclopentyl-5-methyl-2-{[5-(1-piperazinyl)-2-pyridinyl]amino}pyrido[2,3-d]pyrimidin-7(8H)-one] | […] | 7.80 | – | – | – |
| C=CC(=O)N1CCN(c2nc(=O)n(-c3c(C)ccnc3C(C)C)c3nc(-c4c(O)cccc4F)c(F)cc23)[C@@H](C)C1 [Sotorasib] | – | – | < 7.00 | < 7.00 | < 7.00 |

— US20260295067A1, “PANRAS INHIBITOR ANTIBODY-DRUG CONJUGATES AND METHODS OF USE THEREOF” (NOVARTIS AG, priority 2023, published 2026)
